In US10918645B2 (LIFEARC, priority 2016, dated 2021):

Tests used:
[1] = tested on: transgenic Drosophila expressing LRRK2-G2019S in dopamine (DA) neurons; experiment: Drosophila model survival rate; type: in vivo; conditions: significance compared to DMSO negative control
Description: Drosophila model was used to evaluate Examples in vivo. The GAL4/UAS system developed by Andrea Brand and Norbert Perrimon in 1993 [45] was used to generate transgenic Drosophila expressing LRRK2-G2019S in dopamine (DA) neurons. The system has two parts: the GAL4 gene, encoding the yeast transcription activator protein GAL4, and the UAS (Upstream Activation Sequence), an enhancer to which GAL4 specifically binds to activate gene transcription. This system takes advantage of the yeast GAL4 transcription factor, which binds specifically to the UAS.
To express LRRK2-G2019S in DA neurons, the UAS-Wild Type-LRRK2 and UAS-G2019S-LRRK2 transgenes were combined with the dopa decarboxylase (ddc)-GAL4 driver. The 10 μM GW5074 was used for the positive control. […]
Twenty newly enclosed female Drosophila were collected and placed in a food vial. The Drosophila were moved to fresh food vials every other day at which time deaths were scored.
Based on Drosophila′ survival curve, the 50% survival time parameter indicates the time at which half of the Drosophila remained alive and was used to compare the survival ratio between the different groups. The mean 50% survival times and the standard errors were calculated based on 4 separate experiments for each group. The data were analysed by GraphPad PRISM® 6.0 software.

[2] = target: LRRK2 (phospho S935) in Drosophila brain lysates (Homo sapiens (Human), UniProt Q5S007, G2019S); experiment: Drosophila model kinase assays at week 6; type: in vivo; conditions: ratio of phosphate LRRK2 protein to Flag protein, significance compared to DMSO negative control
Chain of LRRK2 (phospho S935) in Drosophila brain lysates (Q5S007 whole entry G2019S): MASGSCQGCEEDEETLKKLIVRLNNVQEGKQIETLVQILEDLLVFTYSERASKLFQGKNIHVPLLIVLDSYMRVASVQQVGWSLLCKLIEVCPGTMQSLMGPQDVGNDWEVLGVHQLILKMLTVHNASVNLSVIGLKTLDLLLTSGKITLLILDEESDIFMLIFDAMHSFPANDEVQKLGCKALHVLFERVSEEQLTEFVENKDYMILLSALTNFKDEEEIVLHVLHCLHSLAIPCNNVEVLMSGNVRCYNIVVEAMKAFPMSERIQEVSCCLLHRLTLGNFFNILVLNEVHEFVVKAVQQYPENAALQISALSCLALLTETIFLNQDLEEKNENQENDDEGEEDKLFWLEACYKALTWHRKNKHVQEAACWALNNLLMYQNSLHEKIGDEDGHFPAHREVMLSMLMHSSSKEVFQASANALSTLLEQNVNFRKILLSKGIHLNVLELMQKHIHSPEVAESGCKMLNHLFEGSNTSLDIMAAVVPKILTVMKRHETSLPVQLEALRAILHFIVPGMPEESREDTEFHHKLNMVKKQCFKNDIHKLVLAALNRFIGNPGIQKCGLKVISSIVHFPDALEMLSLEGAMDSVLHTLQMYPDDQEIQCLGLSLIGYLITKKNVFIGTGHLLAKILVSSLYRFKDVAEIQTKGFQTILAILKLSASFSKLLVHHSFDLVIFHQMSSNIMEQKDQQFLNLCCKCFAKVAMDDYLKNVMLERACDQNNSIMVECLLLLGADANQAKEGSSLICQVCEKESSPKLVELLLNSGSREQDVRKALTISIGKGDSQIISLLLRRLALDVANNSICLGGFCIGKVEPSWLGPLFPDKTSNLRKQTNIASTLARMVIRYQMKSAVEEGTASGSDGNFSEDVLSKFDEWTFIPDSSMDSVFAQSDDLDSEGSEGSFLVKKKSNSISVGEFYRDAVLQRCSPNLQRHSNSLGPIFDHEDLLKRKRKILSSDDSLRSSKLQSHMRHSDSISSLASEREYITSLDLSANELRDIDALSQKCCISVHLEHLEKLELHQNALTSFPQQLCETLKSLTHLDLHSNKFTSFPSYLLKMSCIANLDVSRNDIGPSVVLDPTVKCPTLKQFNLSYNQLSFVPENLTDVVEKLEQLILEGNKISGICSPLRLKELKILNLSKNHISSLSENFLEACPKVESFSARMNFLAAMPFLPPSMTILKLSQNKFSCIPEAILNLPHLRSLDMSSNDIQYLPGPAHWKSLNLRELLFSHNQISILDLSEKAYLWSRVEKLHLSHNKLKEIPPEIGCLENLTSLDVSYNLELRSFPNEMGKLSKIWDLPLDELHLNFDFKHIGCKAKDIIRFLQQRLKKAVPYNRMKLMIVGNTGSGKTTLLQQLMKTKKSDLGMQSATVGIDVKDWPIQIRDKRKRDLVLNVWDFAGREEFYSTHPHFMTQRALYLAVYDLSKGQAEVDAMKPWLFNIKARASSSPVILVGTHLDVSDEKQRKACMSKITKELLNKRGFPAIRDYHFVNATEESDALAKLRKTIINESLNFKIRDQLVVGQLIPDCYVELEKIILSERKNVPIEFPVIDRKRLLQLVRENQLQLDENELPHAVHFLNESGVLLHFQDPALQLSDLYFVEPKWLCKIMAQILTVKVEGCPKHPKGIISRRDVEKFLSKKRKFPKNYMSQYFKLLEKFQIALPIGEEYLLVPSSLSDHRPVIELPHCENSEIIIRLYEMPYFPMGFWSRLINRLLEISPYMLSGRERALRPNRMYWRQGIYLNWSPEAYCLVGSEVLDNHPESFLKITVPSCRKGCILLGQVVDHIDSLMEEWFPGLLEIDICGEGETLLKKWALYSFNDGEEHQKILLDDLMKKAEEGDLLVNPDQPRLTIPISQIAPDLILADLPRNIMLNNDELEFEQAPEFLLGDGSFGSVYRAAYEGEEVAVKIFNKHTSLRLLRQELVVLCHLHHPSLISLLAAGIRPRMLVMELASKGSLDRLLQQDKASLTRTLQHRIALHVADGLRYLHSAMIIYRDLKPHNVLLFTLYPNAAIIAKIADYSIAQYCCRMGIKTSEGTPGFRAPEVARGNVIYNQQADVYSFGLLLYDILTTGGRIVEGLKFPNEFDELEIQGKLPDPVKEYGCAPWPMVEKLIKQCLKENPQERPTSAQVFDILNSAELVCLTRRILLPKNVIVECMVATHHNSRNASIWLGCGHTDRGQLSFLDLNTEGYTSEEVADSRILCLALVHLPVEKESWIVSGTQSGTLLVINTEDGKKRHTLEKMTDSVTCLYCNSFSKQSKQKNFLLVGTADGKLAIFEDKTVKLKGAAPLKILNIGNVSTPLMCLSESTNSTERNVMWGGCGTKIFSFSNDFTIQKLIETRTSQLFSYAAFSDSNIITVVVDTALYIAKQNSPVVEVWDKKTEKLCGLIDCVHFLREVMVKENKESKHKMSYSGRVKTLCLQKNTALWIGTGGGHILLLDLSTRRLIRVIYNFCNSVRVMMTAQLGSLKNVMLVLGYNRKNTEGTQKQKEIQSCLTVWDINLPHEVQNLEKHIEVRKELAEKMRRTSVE
Description: The 10 μM GW5074 was used for the positive control. The negative control group was DMSO control (all compounds were dissolved in DMSO with 1:1000 dillution). The Drosophila were maintained at 25° C. on a 12 hour light-12 hour dark cycle. GW5074 was used as positive control [47].
The adult Drosophila heads were homogenized on ice, and the brain lysates were performed kinase reaction in kinase reaction buffer with ATP and DTT.
Then the lysates were electrophoresed through 12% SDS-PAGE gels and transferred to PVDF membranes (Millipore). The membranes were blocked in TBST with 5% skimmed milk for 1 hour at room temperature and then incubated in anti-LRRK2 pSer935 antibody (Abcam, ab133450) and anti-Flag antibody overnight at 4° C.
The proteins were detected with HRP-conjugated secondary antibodies and ECL detection reagents. The optical density of immunoblotting was analysed by Image J software and the ratio of phosphate LRRK2 protein compare to Flag protein were calculated and the data were analysed by GraphPad PRISM® 6.0 software.

c1cc2[nH]nc3c2c(n1)N(C1CCOCC1)CCC3 [Example 29, 6-(tetrahydro-2H-pyran-4-yl)-6,7,8,9-tetrahydro-2H-1,2,5,6-tetraazabenzo[cd]azulene]
Survival Rate [1]: * (P < 0.05, compared to DMSO negative control)
Kinase Assays [2]: * (P < 0.05, compared to DMSO negative control)
